In paper PMC7769561, “Antileishmanial activity of synthetic analogs of the naturally occurring quinolone alkaloid N-methyl-8-methoxyflindersin” (PLoS ONE, 2020):

Experiments:
hMDMs = assay: Cytotoxicity in hMDMs (resazurin, 72 h); conditions: class by CC50
Description: We isolated hMDMs from buffy coats donated by the Institute of Local Science (Biotechnology and Health Innovation, Bogotá, Colombia) and spun them in Lymphoprep density gradient medium (Stem-Cell, Vancouver, Canada).
Next, we added 100 μL of this culture to each quinoline alkaloid–like compound at a concentration of 200, 20, 2, 0.2, and 0.02 μg/mL. […] Cells treated with amphotericin B (Sigma-Aldrich) were used as cell apoptosis (positive) controls. Results were expressed as the medial cytotoxic concentration (CC50) using Prism GraphPad software for nonlinear regression analysis (https://www.graphpad.com/scientific-software/prism/).
(§1) All assays required at least three independently duplicated experiments. We determined cytotoxicity against hMDMs and effectivity in L. (V) panamensis promastigotes according to each treatment’s mortality (compound and concentration) using Eq 1, where the control mean fluorescence intensity (MFI) was 100% viability: Validityinhibition(%)=100−[MIFexposedcells/MIFunexposedcells×100] (1)
(§2) We used GraphPad Prism nonlinear regression analysis to estimate the percentage mortality with regard to CC50 and EC50. […] The antileishmanial activity with regard to promastigotes was classified as active according to Eq 2: Active=EC50<[LC50/2], (2) where LC50 is the median lethal concentration. We also used GraphPad Prism nonlinear regression analysis to determine the intracellular antileishmanial activity (concentration vs. response), depending on the infection (number of infected cells) and parasite burden (number of parasites/cell) obtained in experimental conditions. Parasite inhibition was estimated using Eq 3, where the plate MFI is 100% parasites: Infectioninhibition(%)=100−[(MIFexposedparasites/MIFunexposedparasites×100)] (3)

[1] = test system: L. (V.) panamensis promastigotes; assay: Antileishmanial activity in L. (V.) panamensis promastigotes (resazurin, 72 h); type: cell-based, Leishmania (Viannia) panamensis; conditions: L. (V.) panamensis promastigotes, ± SD
Description: They were treated with quinoline alkaloid–like compounds at a concentration of 100, 10, 1, 0.1, and 0.01 μg/mL for 72 h at 26°C. Next, we determined antileishmanial activity using the resazurin method (Sigma-Aldrich). Promastigotes treated with amphotericin B (Sigma-Aldrich) and pentamidine (Sanofi-Aventis, Gentilly, France) were used as parasite death (positive) controls. Results were expressed as the medial effective concentration (EC50) using Prism GraphPad software for nonlinear regression analysis (https://www.graphpad.com/scientific-software/prism/).
as §1, §2

[2] = test system: L. (V.) panamensis-infected hMDMs; assay: ROS generation in L. (V.) panamensis-infected hMDMs (H2DCFDA flow cytometry); type: cell-based, human
Description: Next, we detached the cells with ethylenediaminetetraacetic acid (EDTA)/trypsin (Lonza, MD, USA) and 2',7'-dichlorodihydrofluorescein diacetate (H2DCFDA) tagged on a 5 μM fluorescent tube (Sigma-Aldrich) in order to identify intracellular ROS and/or 4-amino-5-methylamino-2′,7′-difluorofluorescein (DAF-FM; Sigma-Aldrich) for NO production in a 5% CO2 atmosphere for 45 min at 37°C. ROS and NO were quantified using flow cytometry (FACS Canto II) at a wavelength of 480 nm. Untreated cells were used as negative controls, while cells treated with 0.0001% H2O2 and 1 μM phorbol myristate acetate were used as ROS production (positive) controls. LPS (10 ng/mL) and phytohemagglutinin (PHA-M) (10 μL/mL) (Invitrogen) were used as positive controls for NO production.

“1,2,3,4-tetrahydro(benzo)-3-quinolin-ol [Compound 2]” was tested. Which “Cytotoxicity class toward hMDMs” value (hMDMs) did it give?
The value was “high (high if CC50 < 100 μg/mL)”.

And the “EC50 Intracellular promastigotes” value [1]?
Its value is 3.4 ± 1.1 µg/mL.

And the EC50 ([1]; read-out: EC50 Intracellular promastigotes (converted))?
The EC50 was 17 µM.

And the ROS generation ([2]; compound at EC50, 48 h posttreatment)?
The ROS generation was “decrease in ROS generation”.

What about the ROS generation ([2]; compound at EC50, first 4 h) of the same substance?
The ROS generation was “increase in ROS generation”.
